Active and inactive are the calls of the source. The calls are words filed in the database; no cut-off is given here.
Experiments:
Cytochrome P450 2B6 [1] = molecular target: T1, Cytochrome P450 2B6 (Homo sapiens, UniProt P20813); test: (§1) Inhibition of recombinant human CYP2B6; type: ADME
T1 sequence (P20813 whole entry): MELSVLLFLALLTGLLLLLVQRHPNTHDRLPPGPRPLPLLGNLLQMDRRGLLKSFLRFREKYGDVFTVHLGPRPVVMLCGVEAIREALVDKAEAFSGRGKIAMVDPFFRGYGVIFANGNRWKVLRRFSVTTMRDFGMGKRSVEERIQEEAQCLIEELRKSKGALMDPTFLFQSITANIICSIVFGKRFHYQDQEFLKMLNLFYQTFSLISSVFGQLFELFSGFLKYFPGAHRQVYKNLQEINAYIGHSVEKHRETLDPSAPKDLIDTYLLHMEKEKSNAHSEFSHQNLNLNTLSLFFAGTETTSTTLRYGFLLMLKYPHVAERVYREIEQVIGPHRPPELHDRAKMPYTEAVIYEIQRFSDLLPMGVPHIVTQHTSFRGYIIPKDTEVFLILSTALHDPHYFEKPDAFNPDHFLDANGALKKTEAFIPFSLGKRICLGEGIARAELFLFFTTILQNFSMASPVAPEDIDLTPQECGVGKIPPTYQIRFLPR

Cytochrome P450 3A4 = Cytochrome P450 3A4 (Homo sapiens, UniProt P08684); test: Inhibition of recombinant human CYP3A4 using testosterone as substrate; type: ADME
Cytochrome P450 3A5 [2] = molecular target: T2, Cytochrome P450 3A5 (Homo sapiens, UniProt P20815); test: Inhibition of recombinant human CYP3A5 using midazolam as substrate; type: ADME
[3] = AUC (0 to t) in ICR mouse at 2 mg/kg, po measured after 0.0833 to 120 hrs by LC-MS-MS analysis; type: ADME, organism-based; set-up: time upper 120 hr, time lower 0.083 hr, dose 2 mg/kg, route oral; conditions: in vivo
Cytochrome P450 2C8 = molecular target: T3, Cytochrome P450 2C8 (Homo sapiens, UniProt P10632); test: Inhibition of recombinant human CYP2C8; type: ADME
T3 sequence (P10632 whole entry): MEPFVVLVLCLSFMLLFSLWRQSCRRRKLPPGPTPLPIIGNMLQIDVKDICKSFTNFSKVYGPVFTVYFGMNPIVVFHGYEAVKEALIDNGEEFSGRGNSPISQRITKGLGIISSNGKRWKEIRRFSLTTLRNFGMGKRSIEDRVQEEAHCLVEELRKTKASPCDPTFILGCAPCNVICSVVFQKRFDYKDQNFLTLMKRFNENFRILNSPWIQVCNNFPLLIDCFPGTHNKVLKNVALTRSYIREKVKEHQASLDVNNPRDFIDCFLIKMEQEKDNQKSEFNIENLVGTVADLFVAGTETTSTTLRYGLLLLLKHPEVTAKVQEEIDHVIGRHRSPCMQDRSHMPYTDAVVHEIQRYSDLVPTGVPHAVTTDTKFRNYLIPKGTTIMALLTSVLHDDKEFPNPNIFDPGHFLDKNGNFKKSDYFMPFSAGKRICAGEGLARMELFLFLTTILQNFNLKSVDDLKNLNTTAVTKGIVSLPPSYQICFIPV

Cytochrome P450 2D6 [4] = molecular target: T4, Cytochrome P450 2D6 (Homo sapiens, UniProt P10635); test: (§2) Inhibition of recombinant human CYP2D6; type: ADME
Mus musculus [5] = test: Antidiabetic activity in ob/ob mouse assessed as reduction in decrease in HbA1c level at 3 to 10 mg/kg, po dosed once every three days for 31 day; type: functional, organism-based
Cytochrome P450 2D6 [6] = molecular target: T4, Cytochrome P450 2D6; test: as §2; type: ADME; remark: listed apart in the source
Rhesus monkey [7] = test: Ex-vivo inhibition of DPP4 in plasma isolated from rhesus monkey treated at 10 mg/kg, ig after 3 weeks by fluorescence based assay relative to control; type: functional; conditions: Macaca mulatta, po, 504 h
Rhesus monkey [8] = test: Ex-vivo inhibition of DPP4 in plasma isolated from rhesus monkey treated at 10 mg/kg, ig after 12 days by fluorescence based assay relative to control; type: functional; conditions: Macaca mulatta, po, 288 h
[9] = Toxicity in ob/ob mouse assessed as induction of body weight gain at 1 to 10 mg/kg, po dosed once every three days for 31 days; type: organism-based; conditions: in vivo, 744 h
Cytochrome P450 2B6 [10] = molecular target: T1, Cytochrome P450 2B6; test: as §1; type: ADME; remark: listed apart in the source
Cytochrome P450 2E1 [11] = molecular target: T5, Cytochrome P450 2E1 (Homo sapiens, UniProt P05181); test: (§3) Inhibition of recombinant human CYP2E1; type: ADME
CYP2E1 = CYP2E1 (Homo sapiens, UniProt P05181); test: Stability assessed as recombinant human CYP2E1 mediated compound metabolism by measuring parent compound remaining after 30 mins relative to control; type: ADME; conditions: read-out: Stability
Mus musculus [12] = test: Antidiabetic activity in ob/ob mouse assessed as reduction in random blood glucose levels at 1 to 10 mg/kg, po dosed once every three days for 31 days; type: functional, organism-based
[13] = Cmax in ICR mouse at 2 mg/kg, po measured after 0.0833 to 120 hrs by LC-MS-MS analysis; type: ADME, organism-based; set-up: dose 2 mg/kg, route oral; conditions: in vivo
[14] = molecular target: Voltage-gated inwardly rectifying potassium channel KCNH2 (Homo sapiens, UniProt Q12809); test: Inhibition of human ERG by manual whole-cell patch-clamp assay
CYP2A6 = CYP2A6 (Homo sapiens, UniProt P11509); test: Stability assessed as recombinant human CYP2A6 mediated compound metabolism by measuring parent compound remaining after 30 mins relative to control; type: ADME; conditions: read-out: Stability
Cytochrome P450 2E1 [15] = molecular target: T5, Cytochrome P450 2E1; test: as §3; type: ADME; remark: listed apart in the source
Cytochrome P450 1A2 = molecular target: T6, Cytochrome P450 1A2 (Homo sapiens, UniProt P05177); test: Inhibition of recombinant human CYP1A2; type: ADME
T6 sequence (P05177 whole entry): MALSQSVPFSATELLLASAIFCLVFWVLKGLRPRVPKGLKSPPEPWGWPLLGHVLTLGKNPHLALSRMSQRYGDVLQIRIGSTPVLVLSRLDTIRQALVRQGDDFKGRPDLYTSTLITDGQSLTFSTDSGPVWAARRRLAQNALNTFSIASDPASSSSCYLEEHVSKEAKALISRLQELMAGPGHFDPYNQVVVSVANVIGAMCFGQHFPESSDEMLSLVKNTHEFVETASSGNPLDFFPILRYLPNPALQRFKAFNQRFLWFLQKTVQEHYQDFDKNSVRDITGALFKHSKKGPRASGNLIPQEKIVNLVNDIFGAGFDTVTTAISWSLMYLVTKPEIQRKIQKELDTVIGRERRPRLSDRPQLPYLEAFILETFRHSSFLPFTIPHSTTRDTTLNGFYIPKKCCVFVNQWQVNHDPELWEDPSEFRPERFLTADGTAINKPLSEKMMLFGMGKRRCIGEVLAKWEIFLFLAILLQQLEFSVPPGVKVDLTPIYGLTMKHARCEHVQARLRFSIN

Cytochrome P450 3A5 [16] = molecular target: T2, Cytochrome P450 3A5; test: Inhibition of recombinant human CYP3A5 using testosterone as substrate; type: ADME

T4 sequence (P10635 whole entry): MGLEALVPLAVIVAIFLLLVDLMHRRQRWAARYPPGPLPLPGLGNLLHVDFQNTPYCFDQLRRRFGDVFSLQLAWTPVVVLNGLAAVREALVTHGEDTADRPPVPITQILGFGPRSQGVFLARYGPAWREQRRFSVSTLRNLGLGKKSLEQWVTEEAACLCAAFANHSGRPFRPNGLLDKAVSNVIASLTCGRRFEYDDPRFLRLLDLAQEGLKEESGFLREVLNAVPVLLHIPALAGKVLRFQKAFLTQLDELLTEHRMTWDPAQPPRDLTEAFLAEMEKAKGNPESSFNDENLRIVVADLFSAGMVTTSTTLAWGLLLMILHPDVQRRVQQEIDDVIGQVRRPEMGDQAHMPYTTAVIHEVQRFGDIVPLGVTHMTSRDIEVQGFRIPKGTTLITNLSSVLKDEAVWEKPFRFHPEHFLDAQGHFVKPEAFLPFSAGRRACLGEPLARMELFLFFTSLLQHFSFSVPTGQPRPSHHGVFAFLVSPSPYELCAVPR
T2 sequence (P20815 whole entry): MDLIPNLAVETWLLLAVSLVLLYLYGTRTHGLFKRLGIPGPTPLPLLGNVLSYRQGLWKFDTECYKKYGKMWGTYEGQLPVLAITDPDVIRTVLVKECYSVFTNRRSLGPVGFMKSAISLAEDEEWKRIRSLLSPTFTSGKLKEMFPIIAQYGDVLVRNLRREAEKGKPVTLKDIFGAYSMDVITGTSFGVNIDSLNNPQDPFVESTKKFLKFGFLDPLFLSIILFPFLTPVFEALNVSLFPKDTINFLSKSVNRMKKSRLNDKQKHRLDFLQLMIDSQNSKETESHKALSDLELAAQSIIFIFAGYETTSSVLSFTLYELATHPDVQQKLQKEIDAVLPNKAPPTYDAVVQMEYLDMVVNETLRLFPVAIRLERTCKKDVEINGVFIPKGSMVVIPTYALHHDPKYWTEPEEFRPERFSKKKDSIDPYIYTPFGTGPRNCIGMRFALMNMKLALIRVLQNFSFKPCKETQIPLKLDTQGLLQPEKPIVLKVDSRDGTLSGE
T5 sequence (P05181 whole entry): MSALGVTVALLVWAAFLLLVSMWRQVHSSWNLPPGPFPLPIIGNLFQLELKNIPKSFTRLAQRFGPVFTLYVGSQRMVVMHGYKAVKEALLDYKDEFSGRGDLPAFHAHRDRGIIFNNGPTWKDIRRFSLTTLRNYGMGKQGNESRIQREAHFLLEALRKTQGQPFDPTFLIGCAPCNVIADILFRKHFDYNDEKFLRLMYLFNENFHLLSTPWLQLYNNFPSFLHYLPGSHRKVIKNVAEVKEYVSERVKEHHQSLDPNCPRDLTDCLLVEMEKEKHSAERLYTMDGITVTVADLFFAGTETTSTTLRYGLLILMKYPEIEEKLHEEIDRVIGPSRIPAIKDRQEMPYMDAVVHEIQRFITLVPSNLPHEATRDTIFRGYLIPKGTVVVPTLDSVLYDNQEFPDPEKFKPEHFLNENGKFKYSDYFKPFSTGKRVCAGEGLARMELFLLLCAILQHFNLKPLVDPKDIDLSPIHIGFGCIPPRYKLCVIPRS
Cytochrome P450 3A4, sequence (P08684 whole entry): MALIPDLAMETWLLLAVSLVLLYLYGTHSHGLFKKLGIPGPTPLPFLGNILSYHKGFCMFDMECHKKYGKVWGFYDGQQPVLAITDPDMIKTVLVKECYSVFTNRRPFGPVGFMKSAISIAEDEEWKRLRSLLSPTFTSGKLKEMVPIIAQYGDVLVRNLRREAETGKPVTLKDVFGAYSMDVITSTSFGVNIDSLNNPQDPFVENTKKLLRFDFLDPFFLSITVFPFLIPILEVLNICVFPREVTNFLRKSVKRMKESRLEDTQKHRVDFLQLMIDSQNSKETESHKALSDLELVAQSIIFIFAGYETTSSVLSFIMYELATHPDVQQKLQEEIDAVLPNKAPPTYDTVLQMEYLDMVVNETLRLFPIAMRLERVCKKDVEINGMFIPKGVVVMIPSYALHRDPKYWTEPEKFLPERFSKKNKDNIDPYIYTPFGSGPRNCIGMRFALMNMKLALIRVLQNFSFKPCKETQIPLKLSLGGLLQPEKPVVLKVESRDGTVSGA
CYP2E1, sequence (P05181 whole entry): as the sequence (P05181 whole entry) above
CYP2A6, sequence (P11509 whole entry): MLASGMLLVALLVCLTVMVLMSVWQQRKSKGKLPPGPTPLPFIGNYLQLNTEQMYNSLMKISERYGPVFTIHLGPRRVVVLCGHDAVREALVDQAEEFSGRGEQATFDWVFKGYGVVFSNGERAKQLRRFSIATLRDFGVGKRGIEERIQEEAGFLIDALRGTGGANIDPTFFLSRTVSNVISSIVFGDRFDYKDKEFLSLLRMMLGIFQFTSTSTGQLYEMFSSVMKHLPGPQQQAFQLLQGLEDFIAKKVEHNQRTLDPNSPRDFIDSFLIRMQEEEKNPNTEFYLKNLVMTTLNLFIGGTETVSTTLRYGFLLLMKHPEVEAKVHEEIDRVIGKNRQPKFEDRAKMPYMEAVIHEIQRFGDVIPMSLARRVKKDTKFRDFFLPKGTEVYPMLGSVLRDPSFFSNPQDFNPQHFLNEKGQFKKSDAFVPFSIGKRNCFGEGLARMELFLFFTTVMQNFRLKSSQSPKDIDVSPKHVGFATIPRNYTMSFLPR
Voltage-gated inwardly rectifying potassium channel KCNH2, sequence (Q12809 whole entry): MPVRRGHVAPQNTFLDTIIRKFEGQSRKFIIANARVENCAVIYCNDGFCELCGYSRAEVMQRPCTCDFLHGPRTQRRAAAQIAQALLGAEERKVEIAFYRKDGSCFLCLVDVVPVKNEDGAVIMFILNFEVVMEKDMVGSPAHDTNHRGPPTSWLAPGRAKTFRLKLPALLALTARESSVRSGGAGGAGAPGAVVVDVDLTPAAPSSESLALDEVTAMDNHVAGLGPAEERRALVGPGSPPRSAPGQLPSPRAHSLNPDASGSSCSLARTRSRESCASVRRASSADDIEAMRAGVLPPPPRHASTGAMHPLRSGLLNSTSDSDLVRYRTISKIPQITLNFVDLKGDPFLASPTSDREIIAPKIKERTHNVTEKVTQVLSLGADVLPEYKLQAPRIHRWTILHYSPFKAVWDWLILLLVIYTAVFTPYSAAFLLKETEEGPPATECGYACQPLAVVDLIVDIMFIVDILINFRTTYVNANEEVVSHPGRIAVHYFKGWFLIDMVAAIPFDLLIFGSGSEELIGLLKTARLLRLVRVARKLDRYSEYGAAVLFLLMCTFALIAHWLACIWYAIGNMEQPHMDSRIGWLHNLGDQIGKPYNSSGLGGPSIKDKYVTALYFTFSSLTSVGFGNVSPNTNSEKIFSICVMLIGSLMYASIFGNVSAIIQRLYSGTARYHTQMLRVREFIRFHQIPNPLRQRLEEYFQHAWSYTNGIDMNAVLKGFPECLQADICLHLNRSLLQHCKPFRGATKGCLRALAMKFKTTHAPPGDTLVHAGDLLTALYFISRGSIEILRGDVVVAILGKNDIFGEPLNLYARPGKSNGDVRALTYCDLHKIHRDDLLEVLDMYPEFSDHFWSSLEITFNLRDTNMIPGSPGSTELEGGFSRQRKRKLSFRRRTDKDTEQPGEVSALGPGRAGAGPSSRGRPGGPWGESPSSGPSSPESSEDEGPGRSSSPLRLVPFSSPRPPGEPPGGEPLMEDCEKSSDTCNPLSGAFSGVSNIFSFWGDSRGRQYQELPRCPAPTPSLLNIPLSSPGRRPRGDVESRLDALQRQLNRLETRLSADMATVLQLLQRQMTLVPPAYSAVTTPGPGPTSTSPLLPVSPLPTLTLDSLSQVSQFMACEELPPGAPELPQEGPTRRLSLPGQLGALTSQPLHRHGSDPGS

In the case of `CS(=O)(=O)n1cc2c(n1)CN([C@@H]1C[C@H](N)[C@@H](c3cc(F)ccc3F)O[C@@H]1C(F)(F)F)C2` [COFROGLIPTIN], the IC50 (Cytochrome P450 2B6 [1]) is reported as > 100 µM, the IC50 (Cytochrome P450 3A4) is reported as > 100 µM and the IC50 (Cytochrome P450 3A5 [2]) is reported as 45.8 µM. The AUC(0-t) [3] was 7900 ng·h/mL, the IC50 (Cytochrome P450 2C8) was > 100 µM and the IC50 (Cytochrome P450 2D6 [4]) was > 100 µM. For the same compound, the Activity (Mus musculus [5]) was “Active”, the IC50 (Cytochrome P450 2D6 [6]) was > 100 µM and the inhibition in vivo at 10 mg/kg (Rhesus monkey [7]) was 43.4%. The inhibition in vivo at 10 mg/kg (Rhesus monkey [8]) was > 80%, the Activity [9] was “Toxic” and the IC50 (Cytochrome P450 2B6 [10]) was > 100 µM. The IC50 (Cytochrome P450 2E1 [11]) was > 100 µM, the remaining at 0.5 h (CYP2E1) was > 95% and the Activity (Mus musculus [12]) was “Active”. The Cmax [13] was 352 ng/mL, the IC50 [14] was > 30 µM and the remaining at 0.5 h (CYP2A6) was > 95%. The IC50 (Cytochrome P450 2E1 [15]) was > 100 µM, the IC50 (Cytochrome P450 1A2) was > 100 µM and the IC50 (Cytochrome P450 3A5 [16]) was > 100 µM.
